Here are results for 35 compounds from PMC3589648, “2D- and 3D-QSAR studies of a series of benzopyranes and benzopyrano[3,4b][1,4]-oxazines as inhibitors of the multidrug transporter P-glycoprotein” (Journal of Computer-Aided Molecular Design, 2013).

In this data set the target is T1, P-glycoprotein (P-gp) (Homo sapiens, UniProt P08183).
T1 construct: The resistant CEM/vcr1000 line was obtained by stepwise selection in vincristine containing medium; endogenous in cells; host or cells: CCRF-CEM vcr1000 (CEM/vcr1000), a human T-lymphoblast line made multidrug resistant by vincristine selection
T1 sequence (P08183 whole entry): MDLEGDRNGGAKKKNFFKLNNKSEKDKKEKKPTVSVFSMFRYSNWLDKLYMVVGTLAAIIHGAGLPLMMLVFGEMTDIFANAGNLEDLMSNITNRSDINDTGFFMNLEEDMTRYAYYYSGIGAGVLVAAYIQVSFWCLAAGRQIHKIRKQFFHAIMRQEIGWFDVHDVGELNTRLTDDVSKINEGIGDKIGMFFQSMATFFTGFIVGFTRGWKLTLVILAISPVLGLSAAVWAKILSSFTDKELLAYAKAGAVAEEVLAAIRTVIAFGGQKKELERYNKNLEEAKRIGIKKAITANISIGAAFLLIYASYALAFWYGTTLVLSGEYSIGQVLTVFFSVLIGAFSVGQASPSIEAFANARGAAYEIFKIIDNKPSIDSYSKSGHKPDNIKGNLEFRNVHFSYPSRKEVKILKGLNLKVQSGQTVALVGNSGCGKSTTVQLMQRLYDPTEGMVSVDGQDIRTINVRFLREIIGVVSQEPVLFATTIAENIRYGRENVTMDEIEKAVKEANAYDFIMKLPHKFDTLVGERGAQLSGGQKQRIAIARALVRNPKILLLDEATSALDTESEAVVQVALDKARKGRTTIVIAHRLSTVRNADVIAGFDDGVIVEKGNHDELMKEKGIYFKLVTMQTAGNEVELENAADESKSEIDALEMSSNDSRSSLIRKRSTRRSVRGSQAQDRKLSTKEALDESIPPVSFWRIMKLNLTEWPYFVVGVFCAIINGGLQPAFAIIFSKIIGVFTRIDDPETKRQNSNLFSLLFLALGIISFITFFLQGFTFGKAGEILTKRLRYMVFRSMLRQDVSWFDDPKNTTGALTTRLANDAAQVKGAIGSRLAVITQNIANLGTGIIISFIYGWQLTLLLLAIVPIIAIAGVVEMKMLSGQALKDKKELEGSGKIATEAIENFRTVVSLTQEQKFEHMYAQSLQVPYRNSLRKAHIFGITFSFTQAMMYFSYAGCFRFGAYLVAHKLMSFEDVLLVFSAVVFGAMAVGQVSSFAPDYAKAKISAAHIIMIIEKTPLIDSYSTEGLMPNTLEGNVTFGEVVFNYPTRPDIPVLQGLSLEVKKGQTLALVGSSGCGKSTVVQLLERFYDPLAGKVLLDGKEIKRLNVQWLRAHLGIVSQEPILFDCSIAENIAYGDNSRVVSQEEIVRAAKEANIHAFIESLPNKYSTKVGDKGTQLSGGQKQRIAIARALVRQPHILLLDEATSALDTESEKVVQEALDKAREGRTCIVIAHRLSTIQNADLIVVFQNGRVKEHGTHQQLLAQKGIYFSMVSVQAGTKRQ
Description: Daunorubicin efflux inhibition in multidrug resistant CCRF-CEM vcr1000 cells. The following applies: for factor more active than corresponding unsubstituted analogs 6a and 6b: N-methylated L-valine analogues versus secondary amines. In kind it is cell-based. As to the method:
Biological activity of target compounds 5a–22b was assessed using the daunorubicin efflux protocol as described previously. Briefly, multidrug resistant CCRF-CEM vcr 1,000 cells were incubated with daunorubicin and the decrease in mean cellular fluorescence in dependence of time was measured in presence of various concentrations of the modulator. IC50 values were calculated from the concentration–response curve of efflux V max /K m versus concentration of the modulator. Thus, the effect of different modulators on the transport rate is measured in a direct functional assay. Values are given in Table 1 and are the mean of at least three independently performed experiments. Generally, inter experimental variation was below 20 %.
The human T-lymphoblast cell line CCRF-CEM and the multidrug resistant CEM/vcr1000 cell line were provided by V. Gekeler (Byk Gulden, Konstanz, Germany). The resistant CEM/vcr1000 line was obtained by stepwise selection in vincristine containing medium. Cells were kept under standard culture conditions (RPMI1640 medium supplemented with 10% fetal calf serum). P-gp-expressing resistant cell line was cultured in presence of 1000 ng/mL vincristine. One week prior to the experiments cells were transferred into medium without selective agents or antibiotics. Briefly, cells were pelleted, the supernatant was removed by aspiration and cells were resuspended at a density of 1 x 10^6/ mL in PRMI1640 medium containing 3µmol/l daunomycin. Cell suspensions were incubated at 37°C for 30 min. After this time a steady state of daunorubicin accumulation was reached. Tubes were chilled on ice and cells were pelleted at 500 x g. Cells were washed once in RPMI1640 medium to remove extracellular daunorubicin. […] Generally, 8 serial dilutions were tested for each modulator. After 1, 2, 3 and 4 min aliquots of the incubation mixture were drawn and pipetted into 4 volumes of ice cold stop solution (RPMI1640 medium containing verapamil at a final concentration of 100 µM). Parental CCRF-CEM cells were used to correct for simple membrane diffusion, which was less than 3% of the efflux rates observed in resistant cells. Samples drawn at the respective time points were kept in an ice water bath and measured within one hour on a Becton Dickinson FACS Calibur (Becton Dickinson, Heidelberg, Germany) flow cytometer as described. Dose response curves were fitted to the data points using non-linear least squares and IC50 values were calculated as described by Chiba et al. […] A CV of below 20% was obtained in all determinations.

The mark [1] stands for this setting: SM Table 2, logarithm of the measured IC50 (μM) of Table 1.
Where [2] appears, read: inhibition of P-gp mediated daunorubicin efflux, CCRF-CEM vcr1000 cells, mean of at least three experiments, read-out: IC50 μM ± SD.
Where [3] appears, read: SM Table 2, logarithm of the measured IC50 (μM) of Table 1, read-out: Exp. LogIC50 (converted).

Where two headings read alike, the source gives them in different places.

Consider `CC1(C)Oc2ccc(C#N)cc2[C@@H]2N[C@@H](Cc3ccccc3)C(=O)O[C@H]21` [14b], for which the “Exp. LogIC50” value under setting [1] is reported as -2.41. The IC50 under setting [2] came out at 259.78 ± 0.06 µM.

With `CC(C)[C@@H]1C(=O)O[C@H]2[C@@H](c3cc(C#N)ccc3OC2(C)C)N1C` [18a], the IC50 is, setting by setting: under setting [3], 77.6 µM; under setting [2], 79.27 ± 0.05 µM.

For `CC(C)[C@@H](CO)N(C)[C@H]1c2cc(C#N)ccc2OC(C)(C)[C@@H]1O` [20b], the “Exp. LogIC50” value under setting [1] was -0.83. For the same compound, under setting [2], the IC50 was found to be 6.84 ± 0.15 µM.

As to `CC(C)[C@@H](C(=O)OC(C)(C)C)N(C)[C@@H]1c2cc(C#N)ccc2OC(C)(C)[C@H]1O` [9a], the “factor more active than corresponding unsubstituted analogs 6a and 6b” value is 2. For the same compound, the “Exp. LogIC50” value under setting [1] was found to be 0.02. Moreover, the IC50 under setting [2] is 0.96 ± 0.06 µM.

Turning to `CC(C)[C@H](C(=O)OC(C)(C)C)N(C)[C@@H]1c2cc(C#N)ccc2OC(C)(C)[C@H]1O` [11a], the “Exp. LogIC50” value under setting [1] is on record as -0.004. The IC50 under setting [2] was 1.01 ± 0.02 µM.

`CC(C)[C@H](N[C@@H]1c2cc(C#N)ccc2OC(C)(C)[C@H]1O)C(=O)OC(C)(C)C` [6a]: under setting [1], the “Exp. LogIC50” value is listed as -0.38. Under setting [2], the IC50 was 2.4 ± 0.03 µM.

In the case of `CC(C)[C@@H](CCl)N(C)[C@H]1c2cc(C#N)ccc2OC(C)(C)[C@@H]1O` [22b], the “Exp. LogIC50” value under setting [1] was -1.65. In addition, under setting [2], the IC50 came to 45.17 ± 0.05 µM.

As to `CC(C)[C@@H](CCl)N(C)[C@@H]1c2cc(C#N)ccc2OC(C)(C)[C@H]1O` [22a], under setting [1], the “Exp. LogIC50” value is on record as -1.55. Also, the IC50 under setting [2] came out at 35.22 ± 0.02 µM.

Take `C[C@H](N[C@H]1c2cc(C#N)ccc2OC(C)(C)[C@@H]1O)C(=O)OC(C)(C)C` [5b]: under setting [1], the “Exp. LogIC50” value is -1.16. In addition, under setting [2], the IC50 came to 14.55 ± 0.05 µM.

For the compound `CC(C)[C@H]1CO[C@@H]2[C@@H](N1)c1cc(C#N)ccc1OC2(C)C` [21b], the IC50 under setting [3] is 43.7 µM and the IC50 under setting [2] is 44 ± 0.03 µM.

As to `CC(C)[C@@H]1N[C@H]2c3cc(C#N)ccc3OC(C)(C)[C@@H]2OC1=O` [13b], under setting [1], the “Exp. LogIC50” value is -1.77. Under setting [2], the IC50 was 59.3 ± 0.6 µM.

Take `CC(C)[C@H]1C(=O)O[C@H]2[C@@H](c3cc(C#N)ccc3OC2(C)C)N1C` [16a]: the IC50 by setting is: under setting [3], 47.9 µM; under setting [2], 47.51 ± 0.4 µM.

With `C[C@@H]1N[C@H]2c3cc(C#N)ccc3OC(C)(C)[C@@H]2OC1=O` [12b], the “Exp. LogIC50” value under setting [1] is given as -1.88. Also, the IC50 under setting [2] worked out at 76.89 ± 0.06 µM.

Turning to `C[C@H]1C(=O)O[C@H]2[C@@H](c3cc(C#N)ccc3OC2(C)C)N1C` [15a], under setting [1], the “Exp. LogIC50” value is listed as -1.68. Moreover, under setting [2], the IC50 was 47.8 ± 0.91 µM.

As to `CC(C)[C@H](C(=O)OC(C)(C)C)N(C)[C@H]1c2cc(C#N)ccc2OC(C)(C)[C@@H]1O` [11b], the “Exp. LogIC50” value under setting [1] turned out to be 0.005. Under setting [2], the IC50 came to 1 ± 0.05 µM.

As to `CC(C)[C@H]1C(=O)O[C@@H]2[C@H](c3cc(C#N)ccc3OC2(C)C)N1C` [16b], the IC50 under setting [3] was 16.6 µM and the IC50 under setting [2] was determined as 16.7 ± 0.2 µM.

With `CC(C)(C)OC(=O)[C@H](Cc1ccccc1)N[C@@H]1c2cc(C#N)ccc2OC(C)(C)[C@H]1O` [7a], the “Exp. LogIC50” value under setting [1] came out at 0.26. The IC50 under setting [2] is 0.55 ± 0.02 µM.

For `C[C@H]1C(=O)O[C@@H]2[C@H](c3cc(C#N)ccc3OC2(C)C)N1C` [15b], the “Exp. LogIC50” value under setting [1] was -1.46. Also, under setting [2], the IC50 worked out at 28.93 ± 0.15 µM.

With `CC(C)[C@H]1CO[C@H]2[C@H](N1)c1cc(C#N)ccc1OC2(C)C` [21a, (2S,4aS,10bR)-2-isopropyl-5,5-dimethyl-1,4a,5,10b-tetrahydro-3H [1]benzopyrano[3,4-b][1,4]oxazine-9-carbonitril], the IC50 was 49 µM under setting [3] and 48.8 ± 0.09 µM under setting [2].

For `CC(C)[C@@H]1N[C@@H]2c3cc(C#N)ccc3OC(C)(C)[C@H]2OC1=O` [13a], under setting [1], the “Exp. LogIC50” value is given as -1.18. In addition, the IC50 under setting [2] came to 15.3 ± 0.32 µM.

On to `C[C@@H]1N[C@@H]2c3cc(C#N)ccc3OC(C)(C)[C@H]2OC1=O` [12a], for which, under setting [1], the “Exp. LogIC50” value is -3.09. Under setting [2], the IC50 turned out to be 1241.6 ± 0.04 µM. Moreover, for the setting “ratio of P-gp inhibitory potency (IC50), 12a versus 12b”, the “factor less active than diastereomeric 4aR,10bS analogue 12b” value worked out at 15.

As to `CC(C)[C@H]1N[C@H]2c3cc(C#N)ccc3OC(C)(C)[C@@H]2OC1=O` [17b], the IC50 reads like this: under setting [3], 9.55 µM; under setting [2], 9.63 ± 0.08 µM.

With `CC(C)(C)OC(=O)[C@H](Cc1ccccc1)N[C@H]1c2cc(C#N)ccc2OC(C)(C)[C@@H]1O` [7b], the “Exp. LogIC50” value under setting [1] is 0.11. Also, under setting [2], the IC50 was determined as 0.77 ± 0.04 µM.

`CC(C)[C@@H](C(=O)OC(C)(C)C)N(C)[C@H]1c2cc(C#N)ccc2OC(C)(C)[C@@H]1O` [9b]: the “factor more active than corresponding unsubstituted analogs 6a and 6b” value turned out to be 2. In addition, the “Exp. LogIC50” value under setting [1] is on record as -0.13. For the same compound, the IC50 under setting [2] amounted to 1.35 ± 0.003 µM.

Take `C[C@@H](C(=O)OC(C)(C)C)N(C)[C@@H]1c2cc(C#N)ccc2OC(C)(C)[C@H]1O` [8a]: the “Exp. LogIC50” value under setting [1] is given as -0.60. The IC50 under setting [2] turned out to be 3.96 ± 0.06 µM.

Take `CC(C)[C@@H](CO)N[C@@H]1c2cc(C#N)ccc2OC(C)(C)[C@H]1O` [19a]: the “Exp. LogIC50” value under setting [1] was -1.73. Under setting [2], the IC50 stood at 54.05 ± 0.31 µM.

Take `C[C@@H](C(=O)OC(C)(C)C)N(C)[C@H]1c2cc(C#N)ccc2OC(C)(C)[C@@H]1O` [8b]: the “Exp. LogIC50” value under setting [1] is -0.57. In addition, the IC50 under setting [2] came out at 3.72 ± 0.03 µM.

With `CC(C)[C@@H](CO)N[C@H]1c2cc(C#N)ccc2OC(C)(C)[C@@H]1O` [19b], under setting [1], the “Exp. LogIC50” value is -2.01. Also, under setting [2], the IC50 was found to be 102.6 ± 0.15 µM.

Regarding `C[C@H](N[C@@H]1c2cc(C#N)ccc2OC(C)(C)[C@H]1O)C(=O)OC(C)(C)C` [5a], the “Exp. LogIC50” value under setting [1] is -1.47. For the same compound, the IC50 under setting [2] amounted to 29.85 ± 0.01 µM.

As to `CC(C)[C@@H](CO)N(C)[C@@H]1c2cc(C#N)ccc2OC(C)(C)[C@H]1O` [20a], the “Exp. LogIC50” value under setting [1] is reported as -0.74. Moreover, under setting [2], the IC50 is 5.46 ± 0.24 µM.

Take `CC(C)[C@@H]1C(=O)O[C@@H]2[C@H](c3cc(C#N)ccc3OC2(C)C)N1C` [18b]: the IC50 runs as follows: under setting [3], 27.5 µM; under setting [2], 27.84 ± 0.02 µM.

Turning to `CC(C)[C@H](N[C@H]1c2cc(C#N)ccc2OC(C)(C)[C@@H]1O)C(=O)OC(C)(C)C` [6b], under setting [1], the “Exp. LogIC50” value is given as -0.43. The IC50 under setting [2] was 2.7 ± 0.02 µM.

For the compound `CC1(C)Oc2ccc(C#N)cc2[C@H]2N[C@@H](Cc3ccccc3)C(=O)O[C@@H]21` [14a], the “Exp. LogIC50” value under setting [1] is reported as -0.42. Also, the IC50 under setting [2] turned out to be 2.68 ± 0.18 µM. Further, the “more active than diastereomer 14b” value (ratio of P-gp inhibitory potency (IC50), 14a versus 14b) is listed as “two orders of magnitude more active”.

Turning to `CC(C)[C@@H](N[C@H]1c2cc(C#N)ccc2OC(C)(C)[C@@H]1O)C(=O)OC(C)(C)C` [10b], the “Exp. LogIC50” value under setting [1] is on record as -0.13. Further, the IC50 under setting [2] was found to be 1.34 ± 0.08 µM.

As for `CC(C)[C@@H](N[C@@H]1c2cc(C#N)ccc2OC(C)(C)[C@H]1O)C(=O)OC(C)(C)C` [10a], the “Exp. LogIC50” value under setting [1] is -0.66. The IC50 under setting [2] was determined as 4.62 ± 0.31 µM.
